According to ChEMBL document CHEMBL4811216, “Chemotherapy for human schistosomiasis: how far have we come? What's new? Where do we go from here?” (RSC Med Chem, 2020):

Experiments:
[1] = tested on: Schistosoma japonicum; test: Antischistosomal activity against Schistosoma japonicum assessed as worm mortality at 10 ug/ml incubated for 72 hrs by microscopic method relative to control; assay type: functional; conditions: dose 10 µg/ml
[2] = tested on: Schistosoma haematobium; test: Antischistosomal activity against Schistosoma haematobium at 10 uM measured after 72 hrs relative to control; assay type: functional
[3] = tested on: Schistosoma mansoni; test: Antischistosomal activity against Schistosoma mansoni Liberian NTS at 10 uM measured after 24 hrs relative to control; assay type: functional
[4] = tested on: Schistosoma mansoni; test: Antischistosomal activity against adult Schistosoma mansoni Liberian at 10 uM measured after 24 hrs relative to control; assay type: functional
[5] = tested on: Schistosoma mansoni; test: Antischistosomal activity against adult Schistosoma mansoni Liberian at 10 uM measured after 48 hrs relative to control; assay type: functional
[6] = tested on: Schistosoma mansoni; test: microbe, parasite or virus in culture; conditions: Liberian, 72 h
Description: Antischistosomal activity against Schistosoma mansoni Liberian NTS incubated for 72 hrs by microscopic method

[7] = tested on: Schistosoma mansoni; test: microbe, parasite or virus in culture; conditions: 72 h
Description: Antischistosomal activity against Schistosoma mansoni incubated for 72 hrs by inverted microscopic method

[8] = tested on: Schistosoma mansoni; test: Antischistosomal activity against Schistosoma mansoni LE assessed as worm mortality at 20 uM incubated for 72 hrs by microscopic method relative to control; assay type: functional
[9] = tested on: Schistosoma mansoni; test: Antischistosomal activity against adult Schistosoma mansoni LE assessed as worm mortality at 100 ug/ml incubated for 72 hrs by inverted microscopic method relative to control; assay type: functional
[10] = tested on: Schistosoma mansoni; test: Antischistosomal activity against adult Schistosoma mansoni LE assessed as reduction in worm vitality measured every 24 hrs by inverted microscopy; assay type: functional, organism-based
[11] = tested on: Schistosoma mansoni; test: Antischistosomal activity against Schistosoma mansoni LE schistosomula assessed as reduction in worm vitality measured every 24 hrs by inverted microscopy; assay type: functional, organism-based
[12] = tested on: Schistosoma mansoni; test: Antischistosomal activity against Schistosoma mansoni LE assessed as worm mortality at 100 ug/ml measured after 72 hrs by inverted microscopic method relative to control; assay type: functional
[13] = tested on: Schistosoma mansoni; test: Antischistosomal activity against Schistosoma mansoni LE assessed as worm mortality at 100 ug/ml measured after 144 hrs by inverted microscopic method relative to control; assay type: functional; conditions: dose 100 µg/ml
[14] = tested on: Schistosoma mansoni; test: Antischistosomal activity against Schistosoma mansoni infected in mouse assessed as worm burden reduction at 200 mg/kg, po administered as single dose and measured after 17 to 21 days relative to control; assay type: functional; set-up: scale not given: the % may be the effect or the level left; conditions: time 17-21 day
[15] = tested on: Schistosoma mansoni; test: Antischistosomal activity against adult Schistosoma mansoni measured after 72 hrs by microscopic method; assay type: functional, organism-based
[16] = tested on: Schistosoma haematobium; test: Antischistosomal activity against adult Schistosoma haematobium assessed as reduction in worm viability at 100 uM measured after 4 hrs by microscopic method relative to control; assay type: functional
[17] = tested on: Schistosoma haematobium; test: Antischistosomal activity against adult Schistosoma haematobium assessed as reduction in worm viability at 100 uM measured after 48 hrs by microscopic method relative to control; assay type: functional
[18] = tested on: Schistosoma mansoni; test: Antischistosomal activity against Schistosoma mansoni infected in NMRI mouse assessed as worm burden reduction at 100 mg/kg, po administered as single dose relative to control; assay type: functional; set-up: scale not given: the % may be the effect or the level left
[19] = tested on: L6; test: Cytotoxicity against rat L6 cells measured after 72 hrs by alamar blue assay; assay type: functional, cell-based; conditions: L6, 72 h
[20] = tested on: Schistosoma mansoni; test: Antischistosomal activity against Schistosoma mansoni infected in NMRI mouse assessed as worm burden reduction at 200 mg/kg, po administered as single dose measured after 16 to 18 days; assay type: functional, organism-based; set-up: scale not given: the % may be the effect or the level left; conditions: time 16-18 day
[21] = tested on: Schistosoma mansoni; test: Antischistosomal activity against Schistosoma mansoni Liberian infected in NMRI mouse assessed as worm burden reduction at 100 mg/kg, po measured after 14 days relative to control; assay type: functional; set-up: scale not given: the % may be the effect or the level left; conditions: time 14 day
[22] = tested on: Schistosoma haematobium; test: Antischistosomal activity against Schistosoma haematobium Egyptian infected in NMRI mouse assessed as worm burden reduction at 200 mg/kg, po measured after 14 days; assay type: functional; set-up: scale not given: the % may be the effect or the level left; conditions: time 14 day

With `OC(CN1CCCC1)Cn1c2ccc(Cl)cc2c2cc(Cl)ccc21` (stereo not drawn) the Activity [1] was 100%.

`CN1CCN(CCCOc2ncc(Nc3ncc(-c4ccc(C(F)(F)F)c(F)c4)nc3C(N)=O)cn2)CC1` gave an Activity [2] of 100%, an Activity [3] of 100% and an Activity [4] of 70%. For the same compound, the Activity [5] was 100%, the IC50 [6] was 0.8 µM and the IC50 [7] was 3 µM.

With `CN(C)c1ccc(/C=C2\NC(=O)N(Cc3c(F)cccc3Cl)C2=S)cc1` the Activity [8] was 100%.

With `O=C1c2ccccc2C(=O)N1C/C=N/N=c1\[nH]c(-c2ccccc2)cs1` the mortality at 100 µg/mL [9] was 100%, the EC50 [10] was 37.5 µM and the EC50 [11] was 5.15 µM.

In the case of `COc1ccc(-c2cs/c(=N/N=C/CN3C(=O)c4ccccc4C3=O)[nH]2)cc1`, the mortality at 100 µg/mL [12] is reported as 60% and the Activity [13] is reported as 100%.

In the case of `NC(=O)c1nc(-c2ccc(C(F)(F)F)c(F)c2)cnc1Nc1cnc(OCCCN2CCCCC2)nc1`, the Activity [14] is reported as 37.6%.

Compound `OC(CN1CCCCC1)Cn1c2ccc(Cl)cc2c2cc(Cl)ccc21` (stereo not drawn) has an Activity [1] of 100%.

`CC(C)N(Cc1ccccc1)CC1CCc2cc(CCl)c([N+](=O)[O-])cc2N1` (stereo not drawn) gave an IC50 [15] of 11.1 µM, an Activity [16] of 75% and an Activity [17] of 100%. The Activity [18] was 76.1% and the IC50 [19] was over 73 µM.

In the case of `Fc1ccc(Cl)cc1-c1nc(Nc2ccncc2)c2nccnc2n1`, the Activity [20] is reported as 51.6%.

`OC(c1cc(-c2ccccc2)nc2c(Cl)cc(Cl)cc12)C1CCCCN1` (stereo not drawn) was tested, and the Activity [21] was 87% and the Activity [22] was 100%.
